Reference: US9951028B2, “Agricultural chemicals” (REDAG CROP PROTECTION LTD, priority 2013, dated 2018)

Columns and labels:
[1] = system: white mustard Sinapsis alba; assay: Herbicidal efficacy screen, potter tower spray, necrosis assessed; assay type: in vivo
Protocol: (§1) Compounds 22, 23 and 24 were screened for herbicidal efficacy against target plants: garden cress, Lepidium sativum, common chickweed, Stellaria media, and white mustard […] alba Plants were obtained as seeds and were grown to the 2-4 true leaf stage. Plants were grown under laboratory conditions, individually in seed trays. Each plant (in an approximately 3 cm diameter plug) was then detached from the tray for spraying. The compounds were screened at a range of five concentrations, diluted in acetone and TweenTM. A carrier only control was also conducted. Treatments were applied directly onto the plants, using a potter tower, at a specified application rate. One plant of each species was sprayed using a potter tower. The 3 different types of plants were placed on a 10 cm diameter platform directly beneath the potter sprayer and sprayed simultaneously. The growth of the plants and any Phytotoxicity effects were then assessed at intervals over 21 days, according to EPPO guideline PP1/135. Five replicas were performed for each treatment, for each species. In the tables below C represents a percentage increase in necrosis relative to the control of 0.1-50; B represents a percentage inhibition of 50-80; and A represents a percentage inhibition of 80-100.

[2] = system: common chickweed, Stellaria media; assay: as above; assay type: in vivo
Protocol: as §1

[3] = 50 g/ha, day 4 post application
[4] = 50 g/ha, day 5 post application
[5] = 50 g/ha, day 7 post application
[6] = 50 g/ha, day 10 post application
[7] = 100 g/ha, day 1 post application
[8] = 100 g/ha, day 2 post application
[9] = 100 g/ha, day 3 post application
[10] = 100 g/ha, day 4 post application
[11] = 100 g/ha, day 5 post application
[12] = 100 g/ha, day 7 post application
[13] = 100 g/ha, day 10 post application
[14] = 200 g/ha, day 1 post application
[15] = 200 g/ha, day 2 post application
[16] = 200 g/ha, day 3 post application
[17] = 200 g/ha, day 4 post application
[18] = 200 g/ha, day 5 post application
[19] = 200 g/ha, day 7 post application
[20] = 200 g/ha, day 10 post application

## CC(C)N(C)S(=O)(=O)NCc1cc(-n2c(=O)cc(C(F)(F)F)n(C)c2=O)c(F)cc1Cl [Compound 23, 1-[4-Chloro-2-fluoro-5-[[(isopropyl(methyl)sulfamoyl)amino]methyl]phenyl]-3-methyl-2,6-dioxo-4-(trifluoromethyl)pyrimidine]
[1]; [3]
  Average of necrosis: C (C represents a percentage increase in necrosis relative to the control of 0.1-50)
[1]; [4]
  Average of necrosis: C (C represents a percentage increase in necrosis relative to the control of 0.1-50)
[1]; [5]
  Average of necrosis: C (C represents a percentage increase in necrosis relative to the control of 0.1-50)
[1]; [6]
  Average of necrosis: C (C represents a percentage increase in necrosis relative to the control of 0.1-50)
[1]; [7]
  Average of necrosis: C (C represents a percentage increase in necrosis relative to the control of 0.1-50)
[1]; [8]
  Average of necrosis: C (C represents a percentage increase in necrosis relative to the control of 0.1-50)
[1]; [9]
  Average of necrosis: C (C represents a percentage increase in necrosis relative to the control of 0.1-50)
[1]; [10]
  Average of necrosis: C (C represents a percentage increase in necrosis relative to the control of 0.1-50)
[1]; [11]
  Average of necrosis: C (C represents a percentage increase in necrosis relative to the control of 0.1-50)
[1]; [12]
  Average of necrosis: C (C represents a percentage increase in necrosis relative to the control of 0.1-50)
[1]; [13]
  Average of necrosis: C (C represents a percentage increase in necrosis relative to the control of 0.1-50)
[1]; [14]
  Average of necrosis: C (C represents a percentage increase in necrosis relative to the control of 0.1-50)
[1]; [15]
  Average of necrosis: C (C represents a percentage increase in necrosis relative to the control of 0.1-50)
[1]; [16]
  Average of necrosis: C (C represents a percentage increase in necrosis relative to the control of 0.1-50)
[1]; [17]
  Average of necrosis: C (C represents a percentage increase in necrosis relative to the control of 0.1-50)
[1]; [18]
  Average of necrosis: C (C represents a percentage increase in necrosis relative to the control of 0.1-50)
[1]; [19]
  Average of necrosis: C (C represents a percentage increase in necrosis relative to the control of 0.1-50)
[1]; [20]
  Average of necrosis: C (C represents a percentage increase in necrosis relative to the control of 0.1-50)
[2]; 12.5 g/ha, day 1 post application
  Average of necrosis: C (C represents a percentage increase in necrosis relative to the control of 0.1-50)
[2]; 12.5 g/ha, day 2 post application
  Average of necrosis: C (C represents a percentage increase in necrosis relative to the control of 0.1-50)
[2]; 12.5 g/ha, day 3 post application
  Average of necrosis: C (C represents a percentage increase in necrosis relative to the control of 0.1-50)
[2]; 12.5 g/ha, day 4 post application
  Average of necrosis: C (C represents a percentage increase in necrosis relative to the control of 0.1-50)
[2]; 12.5 g/ha, day 5 post application
  Average of necrosis: B (B represents a percentage inhibition of 50-80)
[2]; 12.5 g/ha, day 7 post application
  Average of necrosis: B (B represents a percentage inhibition of 50-80)
[2]; 12.5 g/ha, day 10 post application
  Average of necrosis: A (A represents a percentage inhibition of 80-100)
[2]; 25 g/ha, day 1 post application
  Average of necrosis: C (C represents a percentage increase in necrosis relative to the control of 0.1-50)
[2]; 25 g/ha, day 2 post application
  Average of necrosis: C (C represents a percentage increase in necrosis relative to the control of 0.1-50)
[2]; 25 g/ha, day 3 post application
  Average of necrosis: C (C represents a percentage increase in necrosis relative to the control of 0.1-50)
[2]; 25 g/ha, day 4 post application
  Average of necrosis: C (C represents a percentage increase in necrosis relative to the control of 0.1-50)
[2]; 25 g/ha, day 5 post application
  Average of necrosis: B (B represents a percentage inhibition of 50-80)
[2]; 25 g/ha, day 7 post application
  Average of necrosis: B (B represents a percentage inhibition of 50-80)
[2]; 25 g/ha, day 10 post application
  Average of necrosis: B (B represents a percentage inhibition of 50-80)
[2]; 50 g/ha, day 1 post application
  Average of necrosis: C (C represents a percentage increase in necrosis relative to the control of 0.1-50)
[2]; 50 g/ha, day 2 post application
  Average of necrosis: C (C represents a percentage increase in necrosis relative to the control of 0.1-50)
[2]; 50 g/ha, day 3 post application
  Average of necrosis: C (C represents a percentage increase in necrosis relative to the control of 0.1-50)
[2]; [3]
  Average of necrosis: C (C represents a percentage increase in necrosis relative to the control of 0.1-50)
[2]; [4]
  Average of necrosis: B (B represents a percentage inhibition of 50-80)
[2]; [5]
  Average of necrosis: B (B represents a percentage inhibition of 50-80)
[2]; [6]
  Average of necrosis: B (B represents a percentage inhibition of 50-80)
[2]; [7]
  Average of necrosis: C (C represents a percentage increase in necrosis relative to the control of 0.1-50)
[2]; [8]
  Average of necrosis: C (C represents a percentage increase in necrosis relative to the control of 0.1-50)
[2]; [9]
  Average of necrosis: C (C represents a percentage increase in necrosis relative to the control of 0.1-50)
[2]; [10]
  Average of necrosis: C (C represents a percentage increase in necrosis relative to the control of 0.1-50)
[2]; [11]
  Average of necrosis: B (B represents a percentage inhibition of 50-80)
[2]; [12]
  Average of necrosis: B (B represents a percentage inhibition of 50-80)
[2]; [13]
  Average of necrosis: A (A represents a percentage inhibition of 80-100)
[2]; [14]
  Average of necrosis: C (C represents a percentage increase in necrosis relative to the control of 0.1-50)
[2]; [15]
  Average of necrosis: C (C represents a percentage increase in necrosis relative to the control of 0.1-50)
[2]; [16]
  Average of necrosis: C (C represents a percentage increase in necrosis relative to the control of 0.1-50)
[2]; [17]
  Average of necrosis: C (C represents a percentage increase in necrosis relative to the control of 0.1-50)
[2]; [18]
  Average of necrosis: B (B represents a percentage inhibition of 50-80)
[2]; [19]
  Average of necrosis: B (B represents a percentage inhibition of 50-80)
[2]; [20]
  Average of necrosis: B (B represents a percentage inhibition of 50-80)
